Reference: US10815238B2, “Antimicrobial compounds and methods of making and using the same” (BIOVERSYS AG, priority 2013, dated 2020)

System: Eschericia coli (E. coli) strain ATCC25922
Assay: Standard microdilution assay, MIC against E. coli ATCC25922
Assay type: cell-based
Settings: Escherichia coli; E. coli strain ATCC25922, standard microdilution assay; cutoff 16 micrograms/mL; read-out: MIC E. Coli
Method in brief: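 MIC determined by broth microdilution following CLSI protocols, with reference strains run in parallel for quality control. Activity scored +/− at a cutoff of 16 micrograms/mL.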

MIC [µg/mL] | Compound
< 16 | C[C@H](N)CCCc1cc(-c2cc3cn(-c4ccc([C@@H](CCN)NCCCNC(=N)N)cc4)c(=O)nc3[nH]2)cc(C(F)(F)F)c1 [Compound 6]
< 16 | C[C@H](N)CCCc1cc(OC(F)(F)F)c(F)c(-c2cc3cn(-c4ccc([C@H](C)NCC[C@@H](CCc5ccccc5)NC(=N)N)cc4)c(=O)nc3[nH]2)c1 [Compound 259]
< 16 | C[C@H](NCCCNC(=N)N)c1ccc(-n2cc3cc(-c4cc(SC(F)(F)F)cc([C@H](O)CC[C@@H](N)CO)c4)[nH]c3nc2=O)cc1 [Compound 110]
< 16 | N=C(N)NCCCNCc1ccc(-n2cc3cc(-c4ccc(C(=O)NCc5csc(N6CCOCC6)n5)cc4)[nH]c3nc2=O)cc1 [Compound 49]
< 16 | C[C@H](N)CCCc1cc(-c2cc3cn(-c4ccc([C@@H](CF)NCCCNC(=N)N)cc4)c(=O)nc3[nH]2)cc(C(F)(F)F)c1 [Compound 97]
< 16 | C[C@H](N)CCCc1cc(-c2cc3cn(-c4ccc([C@H](C)NCCCN(C)C(=N)N)cc4)c(=O)nc3[nH]2)cc(C(F)(F)F)c1 [Compound 211]
< 16 | CC[C@@H](N)COCc1cc(SC(F)(F)F)cc(-c2cc3cn(-c4ccc([C@H](C)NCCCNC(=N)N)cc4)c(=O)nc3[nH]2)c1 [Compound 77]
< 16 | C[C@H](N)CCCc1cc(Cl)c(F)c(-c2cc3cn(-c4ccc([C@H](C)NCC[C@@H](CCO)NC(=N)N)cc4)c(=O)nc3[nH]2)c1 [Compound 247]
< 16 | C[C@H](N)CCCc1cc(Cl)c(F)c(-c2cc3cn(-c4ccc([C@H](C)N[C@@H](C)CCNC(=N)N)cc4)c(=O)nc3[nH]2)c1 [Compound 219]
< 16 | C[C@H](N)CCCc1cc(SC(F)(F)F)cc(-c2cc3cn(-c4ccc([C@@H](NCCCNC(=N)N)c5ccc(O)cc5)cc4)c(=O)nc3[nH]2)c1 [Compound 25]
< 16 | C[C@H](N)CCCc1cc(SC(F)(F)F)cc(-c2cc3cn(-c4ccc([C@H](CO)NCCCNC(=N)N)cc4)c(=O)nc3[nH]2)c1 [Compound 104]
< 16 | C=C[C@H](CCNCc1ccc(-n2cc3cc(-c4cc(CCC[C@H](C)N)cc(Cl)c4F)[nH]c3nc2=O)cc1)NC(=N)N [Compound 180]
< 16 | C[C@H](N)CCCc1cc(-c2cc3cn(-c4ccc([C@H](CCN)NCCCNC(=N)N)cc4)c(=O)nc3[nH]2)cc(C(F)(F)F)c1 [Compound 18]
< 16 | C[C@H](N)CCCc1cc(-c2cc3cn(-c4ccc([C@@H](NCCCNC(=N)N)c5cccnc5)cc4)c(=O)nc3[nH]2)cc(C(F)(F)F)c1 [Compound 84]
< 16 | C[C@H](N)CCCc1cc(Cl)c(F)c(-c2cc3cn(-c4ccc([C@@H](NCCCNC(=N)N)c5ccc(O)cc5)cc4)c(=O)nc3[nH]2)c1 [Compound 26]
< 16 | C[C@H](N)CCCc1cc(OC(F)(F)F)c(F)c(-c2cc3cn(-c4ccc([C@H](C)NCC[C@@H](CO)NC(=N)N)cc4)c(=O)nc3[nH]2)c1 [Compound 265]
< 16 | COCC[C@H](NCCCNC(=N)N)c1ccc(-n2cc3cc(-c4cc(CCC[C@H](C)N)cc(Cl)c4F)[nH]c3nc2=O)cc1 [Compound 29]
< 16 | CNCCCN[C@@H](C)c1ccc(-n2cc3cc(-c4cc(CCC[C@H](C)N)cc(Cl)c4F)[nH]c3nc2=O)cc1 [Compound 208]
< 16 | C[C@H](N)CCCc1cc(SC(F)(F)F)cc(-c2cc3cn(-c4ccc(CNCCC(C)(C)N)cc4)c(=O)nc3[nH]2)c1 [Compound 176]
< 16 | C[C@H](N)CCCc1cc(Cl)c(F)c(-c2cc3cn(-c4ccc(CNCCC5(N)CN(C(=N)N)C5)cc4)c(=O)nc3[nH]2)c1 [Compound 190]
< 16 | C[C@H](N)CCCc1cc(Cl)c(F)c(-c2cc3cn(-c4ccc([C@H](Cc5cccnc5)NCCCNC(=N)N)cc4)c(=O)nc3[nH]2)c1 [Compound 56]

MIC [µg/mL] | Compound
> 16 | C[C@H](N)CCCc1cc(SC(F)(F)F)cc(-c2cc3cn(-c4ccc(CNCc5ccncc5)cc4)c(=O)nc3[nH]2)c1 [Compound 128]
> 16 | C[C@H](N)CCCc1cc(-c2cc3cn(-c4ccc([C@@H](NCCCNC(=N)N)c5ccc(S(C)(=O)=O)cc5)cc4)c(=O)nc3[nH]2)cc(C(F)(F)F)c1 [Compound 60]
> 16 | CNCCNCc1ccc(-n2cc3cc(-c4cc(CCC[C@H](C)N)cc(SC(F)(F)F)c4)[nH]c3nc2=O)cc1 [Compound 124]
< 16 | C[C@H](N)CCCc1cc(Cl)c(F)c(-c2cc3cn(-c4ccc([C@H](C)NCC[C@H](CO)NC(=N)N)cc4)c(=O)nc3[nH]2)c1 [Compound 262]
< 16 | C[C@H](N)CCCc1cc(SC(F)(F)F)cc(-c2cc3cn(-c4ccc([C@H](CCO)NCCCNC(=N)N)cc4)c(=O)nc3[nH]2)c1 [Compound 24]
> 16 | COC(=O)CCNCc1ccc(-n2cc3cc(-c4cc(CCC[C@H](C)N)cc(SC(F)(F)F)c4)[nH]c3nc2=O)cc1 [Compound 141]
> 16 | C[C@H](N)CCCc1cc(Cl)c(F)c(-c2cc3cn(-c4ccc([C@@H](N)CCNc5nccs5)cc4)c(=O)nc3[nH]2)c1 [Compound 153]
< 16 | CN[C@H](CCNCc1ccc(-n2cc3cc(-c4cc(CCC[C@H](C)N)cc(Cl)c4F)[nH]c3nc2=O)cc1)COC [Compound 179]
< 16 | C[C@H](N)CCCc1cc(OC(F)(F)F)c(F)c(-c2cc3cn(-c4ccc([C@H](C)NCC[C@@H](CN)NC(=N)N)cc4)c(=O)nc3[nH]2)c1 [Compound 278]
< 16 | C[C@H](N)CCCc1cc(OC(F)(F)F)c(F)c(-c2cc3cn(-c4ccc([C@H](C)N[C@@H](C)CCNC(=N)N)cc4)c(=O)nc3[nH]2)c1 [Compound 232]
> 16 | COc1ccc(CNCc2ccc(-n3cc4cc(-c5cc(CCC[C@H](C)N)cc(SC(F)(F)F)c5)[nH]c4nc3=O)cc2)cn1 [Compound 146]
> 16 | C[C@H](N)CCCc1cc(Cl)c(F)c(-c2cc3cn(-c4ccc(CN)cc4)c(=O)nc3[nH]2)c1 [Compound 136]
< 16 | C[C@H](N)CCCc1cc(OC(F)(F)F)c(F)c(-c2cc3cn(-c4ccc([C@H](C)NCC[C@H](CCO)NC(=N)N)cc4)c(=O)nc3[nH]2)c1 [Compound 245]
< 16 | C[C@H](N)CCCc1cc(Cl)c(F)c(-c2cc3cn(-c4ccc(CNCC[C@H](CN)NC(=N)N)cc4)c(=O)nc3[nH]2)c1 [Compound 203]
< 16 | COC(=O)C[C@H](CCN[C@@H](C)c1ccc(-n2cc3cc(-c4cc(CCC[C@H](C)N)cc(Cl)c4F)[nH]c3nc2=O)cc1)NC(=N)N [Compound 280]
< 16 | C[C@H](N)CCCc1cc(Cl)c(F)c(-c2cc3cn(-c4ccc([C@H](C)NCC[C@@H](CNCc5nccs5)NC(=N)N)cc4)c(=O)nc3[nH]2)c1 [Compound 272]
< 16 | C[C@H](N)CCCc1cc(Cl)c(F)c(-c2cc3cn(-c4ccc([C@H](C)NCC[C@H](CS(C)(=O)=O)NC(=N)N)cc4)c(=O)nc3[nH]2)c1 [Compound 289]
< 16 | C[C@H](N)CCCc1cc(Cl)c(F)c(-c2cc3cn(-c4ccc([C@H](CCN)NCCCNC(=N)N)cc4)c(=O)nc3[nH]2)c1 [Compound 19]
< 16 | C[C@H](N)CCCc1cc(-c2cc3cn(-c4cccc(CCNCCCNC(=N)N)c4)c(=O)nc3[nH]2)cc(C(F)(F)F)c1 [Compound 62]
< 16 | COC(=O)N[C@@H](C)CCCc1cc(Cl)c(F)c(-c2cc3cn(-c4ccc([C@H](C)NCCCNC(=N)N)cc4)c(=O)nc3[nH]2)c1 [Compound 70]
